Laboratory results from publication PMC11472310, “Distinctive Immune Signatures Driven by Structural Alterations in Desmuramylpeptide NOD2 Agonists” (Journal of Medicinal Chemistry, 2024).
Where two headings read alike, the source gives them in different places.

Experiments:
Assay type in all cases: cell-based
[1] = tested on: human PBMCs; assay: Cytokine release from peripheral blood mononuclear cells (LEGENDplex panel); details: 18 h
Source text: The immunomodulatory effects of the selected desmuramylpeptides were examined in human primary peripheral blood mononuclear cells (PBMCs). This diverse mixture of immune cells provided a platform to investigate the effects of these NOD2 agonists within a physiologically relevant environment, encompassing other NOD2-interacting and downstream signaling proteins. […] Given that NOD2 activation often modulates the Toll-like receptor (TLR)-induced cytokine responses, we investigated the impact of combining desmuramylpeptides with lipopolysaccharide (LPS), a well-known TLR4 agonist, on cytokine secretion.[76]−[78]
The elicited cytokine profiles thus broadly reflect the structure–activity relationships obtained in the reporter gene assays.
Peripheral blood mononuclear cells were plated at a density of 1 × 10^6 cells/mL in 48-well plates containing 500 μL of growth medium. Cells were then treated with the compounds (2 μM) or the corresponding vehicle (0.1% DMSO), both in the absence and presence of LPS (10 ng/mL). Following an 18 h incubation period at 37 °C with 5% CO2, cell-free supernatants were collected and stored at −80 °C until analysis. […] Standard curves were constructed using recombinant cytokines provided in the kit. Data analysis was performed using Biolegend software Qognit and Prism (GraphPad, San Diego, CA, USA) software. The experiments were independently replicated four times. Statistical significance was determined using two-way analysis of variance (ANOVA) followed by Tukey’s multiple comparisons test.

[2] = tested on: K562 cancer cells; assay: PBMC cytotoxicity against K562 cancer cells (flow cytometry); details: for cytotoxicity of PBMCs against K562 cells, cotreatment with LPS (relative to negative control) / Cytotoxicity (ratio to control), + LPS: 10 μM + LPS 1 μg/mL; for cytotoxicity of PBMCs against K562 cells, cotreatment with LPS (relative to negative control) / enhancement of cytotoxicity of PBMCs against K562 cells (relative to negative control): 18 h, then 4 h coincubation; for cytotoxicity of PBMCs against K562 cells, cotreatment with LPS (relative to negative control): 40:1; for Cytotoxicity (ratio to control), + LPS / Cytotoxicity (ratio to control): Table S2; for Cytotoxicity (ratio to control) / enhancement of cytotoxicity of PBMCs against K562 cells (relative to negative control): alone: compounds 10 μM, LPS 1 μg/mL, IL-2 200 U/mL; for enhancement of cytotoxicity of PBMCs against K562 cells (relative to negative control): effector:target 40:1
Procedure: In this study, we investigated the potential of desmuramylpeptides, both alone and in combination with LPS, to enhance the cytotoxic activity of PBMCs against cancer cells employing a flow-cytometry-based cytotoxicity assay based on coincubation of preactivated PBMCs with fluorescently labeled K562 cancer cells.[82] Among the diverse subpopulations within PBMCs, natural killer (NK) cells play a pivotal role in detecting and eliminating cancer cells. NOD2-mediated NK cell activity against cancer cells arises from both direct NOD2 agonist elicited cytolytic activity of NK cells[83] and indirect activation through cytokine release by other NOD2-responsive cells, such as monocytes, which comprise approximately 10% of PBMCs; such interactions potentially reinforce the immune response.[84] […] To that end, we utilized the entire PBMC population as effector cells rather than isolated NK cells, to mimic conditions more closely resembling the in vivo environment while K562 chronic myelogenous leukemia cells were used as the target cells in a 40:1 effector to target cell ratio.[87]
The PBMC cytotoxicity assays utilizing K562 cells were conducted following previously established methods, with some adjustments.[82] […] Meanwhile, K562 cells were stained with CFSE (Invitrogen, Carlsbad, CA, USA), washed twice with complete medium, and then added (1 × 10^4 cells per well) to the pretreated PBMCs to achieve a final effector cell to target tumor cell ratio of 40:1. Following a 4-h coincubation period at 37 °C with 5% CO2, cells were stained with Sytox blue dead cell stain (Invitrogen) and analyzed using an Attune NxT flow cytometer (Thermo Fisher Scientific, Waltham, MA, USA) along with FlowJo software (Tree Star, Inc., Ashland, OR, USA). Cells positive for both CFSE and Sytox blue were designated as dead K562 cells. PBMCs alone and CFSE-labeled cancer cells alone were also exposed to the compounds at equivalent concentrations and stained with Sytox blue to assess any direct cytotoxic effects of the compounds on PBMCs and cancer cells separately. Each experiment was conducted in duplicate and repeated in three independent biological replicates. Statistical analysis was performed using one-way ANOVA followed by Dunnett’s multiple comparisons test.

[3] = target: T1, hNOD2 (Homo sapiens, UniProt Q9HC29); assay: HEK-Blue NOD2 cell line reporter assay (NF-κB-inducible SEAP); details: for EC50: HEK-Blue NOD2 cells, 18 h
T1 construct: host or cells: HEK-Blue NOD2 cells (HEK293)
T1 sequence (Q9HC29 whole entry): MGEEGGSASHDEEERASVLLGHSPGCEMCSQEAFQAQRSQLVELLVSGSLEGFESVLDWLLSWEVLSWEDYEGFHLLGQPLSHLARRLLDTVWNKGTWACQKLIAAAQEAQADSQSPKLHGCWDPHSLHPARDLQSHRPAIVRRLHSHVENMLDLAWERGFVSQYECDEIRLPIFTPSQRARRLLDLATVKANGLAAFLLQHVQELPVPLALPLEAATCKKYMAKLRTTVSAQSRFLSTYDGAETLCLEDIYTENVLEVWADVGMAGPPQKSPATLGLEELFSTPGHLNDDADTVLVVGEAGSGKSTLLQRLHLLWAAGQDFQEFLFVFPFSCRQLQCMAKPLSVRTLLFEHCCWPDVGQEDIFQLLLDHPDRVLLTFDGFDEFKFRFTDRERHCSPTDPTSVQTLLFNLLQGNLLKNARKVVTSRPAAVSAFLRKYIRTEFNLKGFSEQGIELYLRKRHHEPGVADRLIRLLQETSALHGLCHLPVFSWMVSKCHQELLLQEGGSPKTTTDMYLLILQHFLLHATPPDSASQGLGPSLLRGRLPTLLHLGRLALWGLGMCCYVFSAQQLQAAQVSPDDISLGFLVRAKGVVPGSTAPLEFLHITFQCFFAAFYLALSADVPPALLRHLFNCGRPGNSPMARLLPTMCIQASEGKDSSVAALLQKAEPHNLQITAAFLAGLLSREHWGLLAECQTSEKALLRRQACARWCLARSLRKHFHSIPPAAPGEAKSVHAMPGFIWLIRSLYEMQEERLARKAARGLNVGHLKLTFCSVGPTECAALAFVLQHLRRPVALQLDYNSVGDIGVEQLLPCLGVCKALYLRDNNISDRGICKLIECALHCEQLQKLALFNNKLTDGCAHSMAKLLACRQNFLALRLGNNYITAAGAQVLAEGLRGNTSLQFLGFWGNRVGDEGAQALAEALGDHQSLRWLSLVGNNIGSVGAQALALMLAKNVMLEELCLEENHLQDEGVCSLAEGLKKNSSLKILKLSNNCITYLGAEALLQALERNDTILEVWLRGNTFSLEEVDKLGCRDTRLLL
Procedure, shortened: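 HEK293 cells cotransfected with hNOD2 and an NF-κB-inducible SEAP reporter, exposed to compounds dose-dependently for 18 h at 37 °C, 5% CO2. SEAP read by absorbance at 630 nm; EC50 values from dose-response, duplicate wells, at least two independent biological replicates.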

[4] = NF-κB transcriptional activity (SEAP), read-out: EC50 (nM), NOD2 agonistic activity

Q: What does the source list for `CCCC(=O)Oc1ccc(/C=C/C(=O)NCC(=O)N[C@H](C(=O)N[C@H](CCC(=O)OCC)C(=O)OCC)C(C)C)cc1OC` [Compound 3, Diethyl ((E)-3-(4-(Butyryloxy)-3-methoxyphenyl)acryloyl)glycyl-L-valyl-D-glutamate]?
A: levels of LPS-induced IL-10 ([1]; 2 μM + LPS 10 ng/mL): amplified; production of MCP-1 and IFN-γ compared to the MDP/LPS combination ([1]; 2 μM + LPS 10 ng/mL): significantly diminished production; secretion of IL-1β, IL-10 and TGFβ compared to the MDP/LPS combination ([1]; 2 μM + LPS 10 ng/mL): increased secretion; cytotoxicity of PBMCs against K562 cells, cotreatment with LPS (relative to negative control) [2]: 0.98 fold; Cytotoxicity (ratio to control), + LPS [2]: 0.98 ± 0.18; Cytotoxicity (ratio to control) [2]: 1.04 ± 0.06; enhancement of cytotoxicity of PBMCs against K562 cells (relative to negative control) [2]: no activity; enhancement in potency compared to 1 ([3]; EC50 ratio versus unsubstituted counterpart 1): ~17 fold; EC50 [3, 4]: 4.6 ± 1.6 nM

Q: Which “levels of LPS-induced IL-10” value ([1]; 2 μM + LPS 10 ng/mL) does the source give for `CC/C=C\C/C=C\C/C=C\C/C=C\C/C=C\CCCC(=O)Oc1ccc(/C=C/C(=O)NCC(=O)N[C@H](C(=O)N[C@H](CCC(=O)OCC)C(=O)OCC)C(C)C)cc1OC` [Compound 23, Diethyl ((E)-3-(4-(((5Z,8Z,11Z,14Z,17Z)-Icosa-5,8,11,14,17-pentaenoyl)oxy)-3-methoxyphenyl)acryloyl)glycyl-L-valyl-D-glutamate] here?
A: amplified

Q: What about the “production of MCP-1 and IFN-γ compared to the MDP/LPS combination” value ([1]; 2 μM + LPS 10 ng/mL) of the same compound?
A: significantly diminished production

Q: And the “secretion of IL-1β, IL-10 and TGFβ compared to the MDP/LPS combination” value ([1]; 2 μM + LPS 10 ng/mL)?
A: increased secretion

Q: And the “cytotoxicity of PBMCs against K562 cells, cotreatment with LPS (relative to negative control)” value [2]?
A: 1.30 fold

Q: What about the “Cytotoxicity (ratio to control), + LPS” value [2] of the same compound?
A: 1.30 ± 0.26

Q: What about the “Cytotoxicity (ratio to control)” value [2] of the same compound?
A: 1.02 ± 0.08

Q: What about the “enhancement of cytotoxicity of PBMCs against K562 cells (relative to negative control)” value [2] of the same compound?
A: no activity

Q: What about the EC50 [3, 4] of the same compound?
A: 105 ± 22.8 nM

Q: For `CCOC(=O)CC[C@@H](NC(=O)[C@@H](NC(=O)CNC(=O)/C=C/c1ccc(OC(=O)CO[C@H]2CC[C@@]3(C)C(=CC[C@H]4[C@@H]5CC[C@H]([C@H](C)CCCC(C)C)[C@@]5(C)CC[C@@H]43)C2)c(OC)c1)C(C)C)C(=O)OCC` [Compound 26, Diethyl ((E)-3-(4-(2-(((8S,9S,10R,13R,14S,17R)-10,13-Dimethyl-17-((R)-6-methylheptan-2-yl)-2,3,4,7,8,9,10,11,12,13,14,15,16,17-tetradecahydro-1H-cyclopenta[a]phenanthren-3-yl)oxy)acetoxy)-3-methoxyphenyl)acryloyl)glycyl-L-valyl-D-glutamate], which “levels of LPS-induced IL-10” value ([1]; 2 μM + LPS 10 ng/mL) is on record?
A: amplified

Q: And the “production of IL-12p70 and TNF-α compared to MDP” value ([1]; 2 μM + LPS 10 ng/mL)?
A: higher production

Q: And the “capacity to induce IP-10 and IFN-γ secretion” value ([1]; 2 μM + LPS 10 ng/mL, versus MDP)?
A: comparable to MDP

Q: What about the “production of proinflammatory cytokines and chemokines including IL-6, IL-8 and MCP-1” value ([1]; 2 μM alone (no LPS)) of the same compound?
A: smaller increases

Q: And the “cytotoxicity of PBMCs against K562 cells, cotreatment with LPS (relative to negative control)” value [2]?
A: 2.39 fold

Q: And the “Cytotoxicity (ratio to control), + LPS” value [2]?
A: 2.39 ± 0.27

Q: What about the “Cytotoxicity (ratio to control)” value [2] of the same compound?
A: 1.34 ± 0.05

Q: And the “enhancement of cytotoxicity of PBMCs against K562 cells (relative to negative control)” value [2]?
A: 1.34 fold

Q: And the EC50 [3, 4]?
A: 12200 nM

Q: What about the EC50 ([3]; read-out: EC50, NOD2 agonistic activity (text)) of the same compound?
A: 12200 nM
